The results in this text go back to ChEMBL document CHEMBL5579878, “Allosteric Activation of Protein Phosphatase 5 with Small Molecules” (J Med Chem, 2024).

pIC50: −log10 of the molar value.

Series [1] deals with T1, Serine/threonine-protein phosphatase 5 (Homo sapiens, UniProt P53041).
T1 sequence (P53041 whole entry): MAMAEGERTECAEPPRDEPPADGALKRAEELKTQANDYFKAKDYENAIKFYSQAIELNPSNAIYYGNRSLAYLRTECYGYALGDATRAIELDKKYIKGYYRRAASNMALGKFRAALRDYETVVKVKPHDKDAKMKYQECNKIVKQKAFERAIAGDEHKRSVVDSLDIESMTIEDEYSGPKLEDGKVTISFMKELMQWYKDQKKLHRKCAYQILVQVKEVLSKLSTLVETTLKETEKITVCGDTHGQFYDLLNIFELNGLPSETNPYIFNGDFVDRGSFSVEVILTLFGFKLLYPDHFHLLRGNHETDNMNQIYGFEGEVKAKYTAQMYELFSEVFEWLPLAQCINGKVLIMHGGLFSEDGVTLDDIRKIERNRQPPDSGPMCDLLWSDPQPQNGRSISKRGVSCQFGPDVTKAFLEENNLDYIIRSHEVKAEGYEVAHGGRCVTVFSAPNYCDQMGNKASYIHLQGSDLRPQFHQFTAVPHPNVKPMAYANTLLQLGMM
The series can be described thus: Inhibition of DDO-3733 preincubated human PP5 phosphatase domain extracted from Escherichia coli BL21 using pNPP as substrate incubated for 30 mins by spectrophotometric analysis.

Series [2] deals with T1, Serine/threonine-protein phosphatase 5. The series can be described thus: Inhibition of human PP5 phosphatase domain extracted from Escherichia coli BL21 using pNPP as substrate incubated for 30 mins by spectrophotometric analysis.
For series [3], the target named is T2, Serine/threonine-protein phosphatase 5 (Homo sapiens) (UniProt P53041).
T2 sequence (whole entry): T1 sequence (P53041 whole entry)
The series can be described thus: Activation of His-tagged human PP5 extracted from Escherichia coli BL21 using pNPP as substrate assessed as fold increase in phosphatase activity at 50 uM incubated for 30 mins by spectrophotometric analysis.

Series [4] concerns the target T2, Serine/threonine-protein phosphatase 5 (Homo sapiens). The series can be described thus: Activation of His-tagged human PP5 extracted from Escherichia coli BL21 using pNPP as substrate assessed as increase in phosphatase activity incubated for 30 mins by spectrophotometric analysis. The following applies: filed as activator.
For series [5] the target is unchanged. Kind of series: Activation of His-tagged human PP5 extracted from Escherichia coli BL21 using pNPP as substrate assessed as fold increase in phosphatase activity at 200 uM incubated for 30 mins by spectrophotometric analysis. The note with it: filed as activator.
In series [6] the test system is SW-620. The series can be described thus: Antiproliferative activity against human SW620 cells assessed as inhibition of cell proliferation incubated for 72 hrs by CCK8 assay. The following applies: SW-620, 72 h. The format is functional, cell-based. In general terms: Tetrazolium dyes change colour on reduction, which living cells bring about.
The subject of series [7] is HCT-116. Kind of series: Heat shock toxicity in human HCT-116 cells assessed as increase in HSP70 protein expression at 3 to 100 nM incubated for 24 hrs by Western blot analysis. The class given is cell-based. The following applies: hct-116, 24 h, 0.1 µM, dose 3-100 nM. Background: In western blotting, separated proteins are transferred to a membrane and probed.
Series [8] has as its system HCT-116. The series can be described thus: Heat shock toxicity in human HCT-116 cells assessed as increase in HSP70 mRNA expression at 10 to 100 nM incubated for 24 hrs by qRT-PCR analysis. The following applies: hct-116, 24 h, 0.1 µM, dose 10-100 nM. The format is cell-based.
The test system of series [9] is HCT-116. The series can be described thus: Heat shock toxicity in human HCT-116 cells assessed as increase in HSP27 mRNA expression at 10 to 100 nM incubated for 24 hrs by qRT-PCR analysis. The class given is cell-based. The note with it: hct-116, 24 h, 0.1 µM, dose 10-100 nM.
The test system of series [10] is HCT-116. The series can be described thus: Antiproliferative activity against human HCT-116 cells assessed as inhibition of cell proliferation incubated for 72 hrs by CCK8 assay. The format is functional, cell-based. The note with it: HCT-116, 72 h.
Series [11] concerns HCT-116. The series can be described thus: Heat shock toxicity in human HCT-116 cells assessed as increase in HSP27 protein expression at 3 to 100 nM incubated for 24 hrs by Western blot analysis. The note with it: hct-116, 24 h, 0.1 µM, dose 3-100 nM. The class given is cell-based.
Series [12] is described as follows: Toxicity in BALB/c nude mouse xenografted with human HCT-116 cells assessed as body weight loss at 20 mg/kg, ip administered every other day for 14 days. The format is organism-based. The note with it: in vivo, 336 h, time 14 day.
For series [13], the system named is HCT-116. Kind of series: Heat shock toxicity in human HCT-116 cells assessed as increase in HSP40 protein expression at 3 to 100 nM incubated for 24 hrs by Western blot analysis. The format is cell-based. The note with it: hct-116, 24 h, 0.1 µM, dose 3-100 nM.
Series [14] relates to HCT-116. The series can be described thus: Heat shock toxicity in human HCT-116 cells assessed as increase in HSP40 mRNA expression at 10 to 100 nM incubated for 24 hrs by qRT-PCR analysis. The following applies: hct-116, 24 h, 0.1 µM, dose 10-100 nM. The class given is cell-based.
In series [15] the target is T2, Serine/threonine-protein phosphatase 5 (Homo sapiens). The series can be described thus: Activation of His-tagged human PP5 extracted from Escherichia coli BL21 using pNPP as substrate assessed as fold change in maximum activation upto 300 uM incubated for 30 mins by spectrophotometric analysis. The note with it: filed as activator.

What is called pIC50 is the negative decadic logarithm of the IC50, by convention in mol/L. Take `CN1CCN(C(=O)C2C(C(=O)O)[C@H]3CC[C@@H]2O3)CC1` (stereo partly drawn) [LB-100]: the results for the pIC50 in series [1] and in series [2] were 4.68 and 4.66, respectively. On to `C/N=c1/oc2c(F)cc(F)cc2cc1C(N)=S`, for which, in series [3], the fold change (FC) was < 1.5.

Consider `N=c1oc2ccc(O)cc2cc1C(N)=S`, for which the fold change (FC) in series [3] (filed as activator) is 1.9. Turning to `N=c1oc2cc(F)ccc2cc1C(N)=S`, the fold change (FC) in [3] (filed as activator) was determined as 1.7. For `N=c1oc2c(F)cc(F)cc2cc1C(N)=S`, in [3] (filed as activator), the fold change (FC) worked out at 2.1. With `N=c1oc2ccc(F)cc2cc1C(N)=S`, the fold change (FC) in [3] was < 1.5. With `COc1ccc2oc(=N)c(C(N)=S)cc2c1`, the Activity result in series [4] was “Dose-Dependent Effect”. Moreover, the fold change (FC) was found to be 1.9 in series [3] (filed as activator) and 3.4 in series [5]. For `Cc1ccc2oc(=N)c(C(N)=S)cc2c1`, the fold change (FC) in [3] (filed as activator) worked out at 1.6. In the case of `N=c1oc2c(Br)cc(Br)cc2cc1C(N)=S`, in series [3] (filed as activator), the fold change (FC) was found to be 2.6.

With `N=c1oc2cc(O)ccc2cc1C(N)=S`, in series [3] (filed as activator), the fold change (FC) amounted to 2.4.

Consider `N=c1oc2cc([N+](=O)[O-])ccc2cc1C(N)=S`, for which the fold change (FC) in series [3] is < 1.5. For `N=c1oc2c(F)cc(F)cc2cc1C(=S)NC=O`, in [3] (filed as activator), the fold change (FC) came to 2.1.

`N=c1oc2ccccc2cc1C(N)=S`: in [3] (filed as activator), the fold change (FC) is 1.8. On the same count and under the same terms, to `COc1cc(Br)cc2cc(C(N)=S)c(=N)oc12` belongs 2.1. `COc1cccc2cc(C(N)=S)c(=N)oc12`: in series [3], the fold change (FC) was < 1.5. As to `N=c1oc2cccc(Br)c2cc1C(N)=S`, the fold change (FC) in [3] was < 1.5.

Take `N=c1oc2cccc(F)c2cc1C(N)=S`: the fold change (FC) in series [3] (filed as activator) is 1.6. In the case of `N=c1oc2c(F)cccc2cc1C(N)=S`, the fold change (FC) in series [3] is < 1.5.

In the case of `CO/N=c1/oc2c(F)cc(F)cc2cc1C(N)=S`, in series [3], the fold change (FC) is < 1.5. Take `COc1ccc2cc(C(N)=S)c(=N)oc2c1`: the fold change (FC) in series [3] (filed as activator) worked out at 1.6. Turning to `N=c1oc2c(F)cc(F)cc2cc1C(N)=O`, the fold change (FC) in [3] is < 1.5. Still for that read-out and setting: to `COc1cccc2oc(=N)c(C(N)=S)cc12` belongs < 1.5. With `N=c1oc2ccc3ccccc3c2cc1C(N)=S`, in [3] (filed as activator), the fold change (FC) was 1.6. On to `CC(C)c1cc(C(=O)N2Cc3ccc(CN4CCN(C)CC4)cc3C2)c(O)cc1O` [ONALESPIB], for which the pIC50 is 6.91 in [6] and 7.11 in series [10]. Besides, the Activity result in series [7] is on record as “Toxic”; in series [8], “Toxic”; in [9] it was “Toxic”; in series [11], “Toxic”; in series [12] it was “Non-Toxic”; in [13], “Toxic”. Besides, the Activity result in [14] is “Toxic”. Regarding `N=c1oc2cc(F)c(F)cc2cc1C(N)=S`, the fold change (FC) in [3] (filed as activator) came out at 1.7.

On to `NC(=S)C1=Cc2cc(F)cc(F)c2OC1N` (stereo not drawn), for which the fold change (FC) in series [3] (filed as activator) was 1.8. `N=c1oc2c(F)ccc(F)c2cc1C(N)=S`: in series [3] (filed as activator), the fold change (FC) was determined as 1.8. Turning to `N=c1oc2cc(Br)ccc2cc1C(N)=S`, the Activity entry in series [4] is “Dose-Dependent Effect”. In addition, the fold change (FC) in series [3] (filed as activator) stood at 2.1; in series [15], 4. Turning to `N=c1oc2c(Cl)cc(Cl)cc2cc1C(N)=S`, in series [3], the fold change (FC) is < 1.5.

For the molecule `N=c1oc2cc(F)cc(F)c2cc1C(N)=O`, the fold change (FC) in series [3] was < 1.5.
